Assay results as given in US4016159A, “Acylamino-cephem-carboxylic acids containing an amidino or guanidino group in the molecule” (Hoechst Aktiengesellschaft, priority 1973, dated 1977).
Converted amounts (≈) assume the structure as drawn.

Tests used:
Assay type in all cases: cell-based
[1] = test system: Staphylococcus aureus SG 511; experiment: Minimum inhibition concentration (MIC), Table 5; conditions: Staphylococcus aureus, SG511, Germ: Staphylococcus aureus SG 511; read-out: Minimum inhibition concentration (MIC)
Excerpt: (§1) Minimum inhibition concentration (MIC) in γ/ml
Germ: Staphylococcus aureus SG 511

[2] = test system: Streptococcus pyogenes A; experiment: Minimum inhibition concentration (MIC), Table 3; conditions: Germ: Streptococcus pyogenes A; for MIC: read-out: Minimum inhibition concentration MIC
Excerpt: Minimum inhibition concentration MIC in γ/ml
Germ: Streptococcus pyogenes A

[3] = test system: Staphylococcus aureus 285; experiment: Minimum inhibition concentration (MIC), Table 1; conditions: for MIC: Staphylococcus aureus, 285, Germ: Staphylococcus aureus 285, read-out: Minimum inhibition concentration (MIC); for Minimum inhibition concentration (MIC): Germ: Staphylococcus aureus 285
Excerpt: as §1
Germ: Staphylococcus aureus 285

[4] = test system: Streptococcus D; experiment: Minimum inhibition concentration (MIC), Table 4; conditions: Germ: Streptococcus D; for MIC: Streptococcus, read-out: Minimum inhibition concentration (MIC)
Excerpt: as §1

Structure (SMILES) | MIC [1] [µg/mL] | MIC [2] [µg/mL] | MIC [3] [µg/mL] | MIC [4] [µg/mL] | Minimum inhibition concentration (MIC) [3] [µg/mL] | Minimum inhibition concentration (MIC) [4] [µg/mL] | Minimum inhibition concentration (MIC) [2] [µg/mL]
N=C(N)c1ccc(OCC(=O)NC2C(=O)N3C(C(=O)O)=C(CSc4nnc(-c5ccccc5)o4)CSC23)cc1 (stereo not shown) [Example 28, 3-[(5-5-phenyl-1,3,4-oxadiazole-2-yl)-thiomethyl]-7-(4-amidino-phenoxyacetamido)-Δ 3-cephem-4-carboxylic acid] | 0.0196 to 0.0391 (≈ 0.0346 to 0.069 µM) | 0.000391 to 0.0078 (≈ 0.00069 to 0.0138 µM) | – | – | 0.156 to 0.391 | 10 to 50 | –
O=C(COc1ccc(C2=NCCCN2)cc1)NC1C(=O)N2C(C(=O)O)=C(CSc3nnc(-c4ccccc4)o3)CSC12 (stereo not shown) [Example 51, 3-[(5-phenyl-1,3,4-oxadiazole-2-yl)-thiomethyl]-7-[4-(1,4,5,6-tetrahydropyrimide-2-yl)-phenoxyacetamido]-Δ 3-cephem-4-carboxylic acid] | 0.0196 to 0.0391 (≈ 0.0323 to 0.0644 µM) | 0.000391 to 0.0078 (≈ 0.000644 to 0.0129 µM) | 0.156 to 0.391 (≈ 0.257 to 0.644 µM) | 0.196 to 6.25 (≈ 0.323 to 10.3 µM) | – | – | –
N=C(N)c1ccc(OCC(=O)NC2C(=O)N3C(C(=O)O)=C(CSc4nc(-c5ccccc5)cs4)CSC23)cc1 (stereo not shown) [Example 27, 3-[(4-phenyl-1,3-thiazole-2-yl)-thiomethyl]-7-(4-amidinophenoxy-acetamido)-Δ 3-cephem-4-carboxylic acid] | 0.0625 to 0.078 (≈ 0.107 to 0.134 µM) | 0.000391 to 0.0078 (≈ 0.000672 to 0.0134 µM) | 0.5 to 1.25 (≈ 0.86 to 2.15 µM) | 10 to 50 (≈ 17.2 to 86 µM) | – | – | –
CCCCCCNC(=N)c1ccc(OCC(=O)NC2C(=O)N3C(C(=O)O)=C(CSc4nnc(-c5ccccc5)o4)CSC23)cc1 (stereo not shown) [Example 39] | 0.0196 to 0.0391 (≈ 0.0301 to 0.0601 µM) | 0.008 to 0.0156 (≈ 0.0123 to 0.024 µM) | 0.5 to 1.25 (≈ 0.768 to 1.92 µM) | 10 to 50 (≈ 15.4 to 76.8 µM) | – | – | –
CCCCc1nnc(SCC2=C(C(=O)O)N3C(=O)C(NC(=O)Cc4ccc(C(=N)N)cc4)C3SC2)o1 (stereo not shown) [Example 54, 3-[(5-n-butyl-1,3,4-oxadiazole-2-yl)-thiomethyl]-7-(4-amidino-phenylacetamido)-Δ 3-cephem-4-carboxylic acid] | 0.0196 to 0.0391 (≈ 0.0369 to 0.0737 µM) | 0.000391 to 0.0078 (≈ 0.000737 to 0.0147 µM) | 0.156 to 0.391 (≈ 0.294 to 0.737 µM) | 10 to 50 (≈ 18.8 to 94.2 µM) | – | – | –
O=C(COc1ccc(C2=NCCCN2)cc1)NC1C(=O)N2C(C(=O)O)=C(CSc3nncs3)CSC12 (stereo not shown) [Example 62] | 0.0625 to 0.078 (≈ 0.114 to 0.143 µM) | 0.008 to 0.0156 (≈ 0.0146 to 0.0285 µM) | 0.5 to 1.25 (≈ 0.915 to 2.29 µM) | 10 to 50 (≈ 18.3 to 91.5 µM) | – | – | –
O=C(Cc1ccc(C2=NCCN2)cc1)NC1C(=O)N2C(C(=O)O)=C(CSc3nnc(-c4ccccc4)s3)CSC12 (stereo not shown) [Example 52, 3-[(5-phenyl-1,3,4-thiadiazole-2-yl)-thiomethyl]-7-[4-(imidazoline-2-yl)-phenylacetamido] -Δ 3-cephem-4-carboxylic acid] | 0.0196 to 0.0391 (≈ 0.0331 to 0.066 µM) | 0.000391 to 0.0078 (≈ 0.00066 to 0.0132 µM) | 0.156 to 0.391 (≈ 0.263 to 0.66 µM) | 0.196 to 6.25 (≈ 0.331 to 10.5 µM) | – | – | –

Results, then the compound that gave them:

MIC [1] [µg/mL] | MIC [2] [µg/mL] | MIC [3] [µg/mL] | MIC [4] [µg/mL] | Minimum inhibition concentration (MIC) [3] [µg/mL] | Minimum inhibition concentration (MIC) [4] [µg/mL] | Minimum inhibition concentration (MIC) [2] [µg/mL] | Structure (SMILES)
0.0625 to 0.078 (≈ 0.117 to 0.146 µM) | 0.000391 to 0.0078 (≈ 0.000734 to 0.0146 µM) | 0.5 to 1.25 (≈ 0.939 to 2.35 µM) | 10 to 50 (≈ 18.8 to 93.9 µM) | – | – | – | O=C(COc1ccc(C2=NCCN2)cc1)NC1C(=O)N2C(C(=O)O)=C(CSc3nncs3)CSC12 (stereo not shown) [Example 73, 3-[(1,3,4-thiadiazole-2-yl)-thiomethyl]-7-[4-(imidazoline-2-yl)-phenoxyacetamido]-Δ 3-cephem-4-carboxylic acid]
0.0196 to 0.0391 (≈ 0.0336 to 0.0671 µM) | 0.000391 to 0.0078 (≈ 0.000671 to 0.0134 µM) | 0.156 to 0.391 (≈ 0.268 to 0.671 µM) | 10 to 50 (≈ 17.2 to 85.8 µM) | – | – | – | N=C(N)c1ccc(OCC(=O)NC2C(=O)N3C(C(=O)O)=C(CSc4nnc(-c5ccccc5)s4)CSC23)cc1 (stereo not shown) [Example 65, 3-[(5-phenyl-1,3,4-thiadiazole-2-yl)-thiomethyl]-7-(4-amidinophenoxyacetamido)-Δ 3-cephem-4-carboxylic acid]
0.0625 to 0.078 (≈ 0.111 to 0.138 µM) | 0.000391 to 0.0078 (≈ 0.000694 to 0.0138 µM) | 0.156 to 0.391 (≈ 0.277 to 0.694 µM) | 10 to 50 (≈ 17.7 to 88.7 µM) | – | – | – | O=C(Cc1ccc(C2=NCCCN2)cc1)NC1C(=O)N2C(C(=O)O)=C(CSc3nc4ccccc4o3)CSC12 (stereo not shown) [Example 109, 3-[(benzoxazole-2-yl)-thiomethyl]-7-[4-(1,4,5,6-tetrahydropyrimide-2-yl)-phenylacetamido]-Δ3-cephem-4-carboxylic acid]
0.0625 to 0.078 (≈ 0.106 to 0.132 µM) | – | – | – | 0.156 to 0.391 | 10 to 50 | 0.000391 to 0.0078 | O=C(Cc1ccc(C2=NCCCN2)cc1)NC1C(=O)N2C(C(=O)O)=C(CSc3nnc(-c4ccccc4)o3)CSC12 (stereo not shown) [Example 103, 3-[(5-phenyl-1,3,4-oxadiazole-2-yl)-thiomethyl]-7-[4-(1,4,5,6-tetrahydropyrimide-2-yl)-phenylacetamido]-Δ3-cephem-4-carboxylic acid]
0.0625 to 0.078 (≈ 0.123 to 0.154 µM) | 0.008 to 0.0156 (≈ 0.0158 to 0.0308 µM) | 0.156 to 0.391 (≈ 0.308 to 0.772 µM) | 10 to 50 (≈ 19.7 to 98.7 µM) | – | – | – | N=C(N)c1ccc(OCC(=O)NC2C(=O)N3C(C(=O)O)=C(CSc4nncs4)CSC23)cc1 (stereo not shown) [Example 63, 3-[(1,3,4-thiadiazole-2-yl)-thiomethyl]-7-(4amidinophenoxyacetamido)-Δ 3-cephem-4-carboxylic acid]
0.0625 to 0.078 (≈ 0.112 to 0.14 µM) | 0.000391 to 0.0078 (≈ 0.000701 to 0.014 µM) | 0.156 to 0.391 (≈ 0.28 to 0.701 µM) | 10 to 50 (≈ 17.9 to 89.7 µM) | – | – | – | Cc1nc(SCC2=C(C(=O)O)N3C(=O)C(NC(=O)Cc4ccc(C5=NCCCN5)cc4)C3SC2)sc1C (stereo not shown) [Example 106, 3-[(4,5-dimethylthiazole-2-yl)-thiomethyl]-7-[4-(1,4,5,6-tetrahydropyrimide-2-yl)-phenylacetamido]-Δ3-cephem-4-carboxylic acid]
